Reference: patent publication US20100136118A1, “CALCIUM ABSORPTION ENHANCER” (priority 2007, published 2010)
“Also recorded” adds a separate entry of the source.

Tests used:
Type in all cases: physicochemical
Conditions in all cases: organic acid calcium from egg shell mixture (A)
[1] = sustained release property in simulated gastric cavity (column, 0.05 N aqueous HCl solution, diluted gastric juice)
Description: (§1) The amount of an eluted solvent (mL) and changes in the amount of calcium ions (integrated value) with elution of 0.05 N HCl were measured, and the amount of an eluted solvent (mL) and changes in the amount of each organic acid (integrated value) with elution of 0.05 N HCl were measured. Among the obtained results, the measurement results regarding the amount of calcium ions (integrated value) are shown in FIG. 9.
(§2) Furthermore, as a solvent, 0.05 N aqueous HCl solution was used instead of 0.1 N aqueous HCl solution to simulate a state in which gastric juice in an organism was diluted with drinking water. Except for this condition, the amount of solvent (mL) eluted in the simulated gastric cavity and changes in the amount of calcium ions (integrated value) with elution of the solvent were evaluated in the same manner as in Example 8.
(§3) Using 0.05 N aqueous HCl solution as a solvent, the amount of solvent (mL) eluted in the simulated gastric cavity and changes in the amount of calcium ions (integrated value) with elution of the solvent were evaluated. […]
as §3

[2] = sustained release property in simulated gastric cavity (column, 0.1 N aqueous HCl solution)
Description: Subsequently, 0.1 N aqueous HCl solution simulating a gastric juice as a solvent was passed through this column and separated by a low-pressure chromatography system (Bio-Rad Laboratories, Inc., BioLogic LP Chromatography System) over time. The flow rate of the solvent during the separation was 1.0 mL/min. Then, the calcium ion concentration in each separated solution was measured using Calcium C-test Wako (Wako Pure Chemical Industries, Ltd., Cat. No. 272-21801). The concentration of the organic acid in each separated solution (lactic acid, acetic acid, and citric acid) was measured using F-Kit Lactic Acid, F-Kit Acetic Acid, and F-Kit Citric Acid (Roche Diagnostics K.K., Cat. Nos. 1112821, 148261, and 139076).
The amount of an eluted solvent (mL) and changes in the amount of calcium ions (integrated value) with elution of 0.1 N HCl were measured, and the amount of an eluted solvent (mL) and changes in the amount of each organic acid (integrated value) with elution of 0.1 N HCl were measured.
Using 0.1 N aqueous HCl solution as a solvent, the amount of solvent (mL) eluted in the simulated gastric cavity and changes in the amount of calcium ions (integrated value) with elution of the solvent were evaluated. […]

[3] = sustained release property in simulated intestines (column, distilled water)
Description: as §1, with “distilled water” for “0.05 N HCl”, “11.” for “9.”
as §2, with “distilled water” for “0.05 N aqueous HCl solution”, “acid” for “juice in an organism”, “neutralized when a drink or a food was transported from the stomach to the duodenum.” for “diluted with drinking water.”
Using distilled water as a solvent, the amount of solvent (mL) eluted in the simulated gastric cavity and changes in the amount of calcium ions (integrated value) with elution of the solvent were evaluated. […]
Using distilled water as a solvent, the amount of solvent (mL) eluted in the simulated intestine and changes in the amount of calcium ions (integrated value) with elution of the solvent were evaluated. […]

Row | Compound | amount of each organic acid (integrated value) vs amount of eluted solvent [1] | amount of each organic acid (integrated value) vs amount of eluted solvent [2] | amount of each organic acid (integrated value) vs amount of eluted solvent [3]
1 | O=C([O-])CC(O)(CC(=O)[O-])C(=O)[O-].O=C([O-])CC(O)(CC(=O)[O-])C(=O)[O-].[Ca+2].[Ca+2].[Ca+2] [calcium citrate] | gradually dissolved; also recorded: dissolved in virtually the same amount | started gradually after the start of elution | gradually dissolved
2 | CC(O)C(=O)[O-].CC(O)C(=O)[O-].[Ca+2] (stereo not drawn) [calcium lactate] | dissolved first | dissolved first at the stage of the start of measurement | dissolved first at the stage of the start of measurement
